Key:
[1] = mn = molality of the nth substance listed, in mol/kg; settings: 101 kPa, Liquid; for speed of sound: Sing-around technique in a fixed-path interferometer; for mass density: Vibrating tube method
[2] = osmotic coefficient (dimensionless); mn = molality of the nth substance listed, in mol/kg; settings: 323.15 K, Liquid, Knauer Osmometer

CCCCn1cc[n+](C)c1.O=S(=O)([O-])C(F)(F)F [1-butyl-3-methylimidazolium trifluoromethanesulfonate] + CCCCCO
[1]
Settings | mass density, 293.15 K [kg/m3] | mass density, 308.15 K [kg/m3] | mass density, 323.15 K [kg/m3] | speed of sound, 293.15 K [m/s] | speed of sound, 308.15 K [m/s] | speed of sound, 323.15 K [m/s]
m1 = 0.048 | 818.89 | 807.86 | 796.5 | 1292.6 | 1242.7 | 1193.2
m1 = 0.103 | 823.68 | 812.65 | 801.3 | 1292.3 | 1242.7 | 1193.6
m1 = 0.203 | 832.08 | 821.04 | 809.68 | 1291.9 | 1242.7 | 1194.1
m1 = 0.246 | 835.58 | 824.54 | 813.18 | 1291.4 | 1242.6 | 1194.1
m1 = 0.746 | 872.74 | 861.58 | 850.17 | 1289 | 1242 | 1195.6
m1 = 1.014 | 890.36 | 879.13 | 867.69 | 1288.5 | 1242.2 | 1196.7
m1 = 1.517 | 919.71 | 908.4 | 896.89 | 1288.2 | 1243.4 | 1199.3
m1 = 1.778 | 933.35 | 921.98 | 910.45 | 1288.6 | 1244.5 | 1201
m1 = 2.024 | 945.34 | 933.93 | 922.38 | 1289.4 | 1245.7 | 1202.7
m1 = 2.477 | 965.54 | 954.08 | 942.49 | 1290.7 | 1248.1 | 1205.9
m1 = 2.963 | 984.77 | 973.25 | 961.63 | 1292.8 | 1250.8 | 1209.4

[2]
Settings | osmotic coefficient
m1 = 0.0505 | 0.619
m1 = 0.0795 | 0.565
m1 = 0.1004 | 0.529
m1 = 0.2014 | 0.436
m1 = 0.3014 | 0.402
m1 = 0.406 | 0.365
m1 = 0.5071 | 0.344
m1 = 0.8272 | 0.299
m1 = 1.233 | 0.242
m1 = 1.649 | 0.224
m1 = 2.044 | 0.202
m1 = 2.446 | 0.183
m1 = 2.837 | 0.184
m1 = 3.34 | 0.184

Reference: the NIST ThermoML archive (doi:10.1016/j.jct.2013.01.032)
